# From patent publication US20250136578A1 (Kolm Therapeutics Inc., priority 2023, published 2025)
# Where two headings read alike, the source gives them in different places.
# Columns and labels:
# AR / CBP ternary complex = AR / CBP ternary complex (Homo sapiens, UniProt P10275+Q92793); assay: Ternary complex formation assay (sandwich ELISA, AR capture, CBP antibody detection) in VCaP cell lysates; format: cell-based
# In short: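 Sandwich ELISA: plates were coated with anti-AR antibody (AR441) and given lysates of VCaP cells treated 1.5 h with bifunctional compound in charcoal-stripped serum. Co-captured CBP or p300 was probed with rabbit mAbs and HRP secondary. Chemifluorescent signal (ex 570/em 585) was read at 0, 5 and 15 min.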
# VCaP cells = assay: VCaP growth inhibition assay (CTG); format: cell-based; conditions: Homo sapiens, 216 h, 30 pM R1881, 9 days
# In short: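 Growth was measured by CTG luminescence after a 9-day exposure of VCaP cells to compound (final 10 fM–100 nM, fivefold steps) in the presence of 30 pM final R1881, in phenol red-free DMEM/5% CSS. IC50 values were derived by nonlinear 4-parameter regression of RLU against concentration.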
# [1] = treated 1.5 hours, rabbit CBP or p300 antibody detection, average, read-out: Average Ternary Complex
# [2] = read-out: Average Ternary Complex, treated 1.5 hours, rabbit CBP or p300 antibody detection
# AR / CBP ternary complex, sequence (P10275 whole entry): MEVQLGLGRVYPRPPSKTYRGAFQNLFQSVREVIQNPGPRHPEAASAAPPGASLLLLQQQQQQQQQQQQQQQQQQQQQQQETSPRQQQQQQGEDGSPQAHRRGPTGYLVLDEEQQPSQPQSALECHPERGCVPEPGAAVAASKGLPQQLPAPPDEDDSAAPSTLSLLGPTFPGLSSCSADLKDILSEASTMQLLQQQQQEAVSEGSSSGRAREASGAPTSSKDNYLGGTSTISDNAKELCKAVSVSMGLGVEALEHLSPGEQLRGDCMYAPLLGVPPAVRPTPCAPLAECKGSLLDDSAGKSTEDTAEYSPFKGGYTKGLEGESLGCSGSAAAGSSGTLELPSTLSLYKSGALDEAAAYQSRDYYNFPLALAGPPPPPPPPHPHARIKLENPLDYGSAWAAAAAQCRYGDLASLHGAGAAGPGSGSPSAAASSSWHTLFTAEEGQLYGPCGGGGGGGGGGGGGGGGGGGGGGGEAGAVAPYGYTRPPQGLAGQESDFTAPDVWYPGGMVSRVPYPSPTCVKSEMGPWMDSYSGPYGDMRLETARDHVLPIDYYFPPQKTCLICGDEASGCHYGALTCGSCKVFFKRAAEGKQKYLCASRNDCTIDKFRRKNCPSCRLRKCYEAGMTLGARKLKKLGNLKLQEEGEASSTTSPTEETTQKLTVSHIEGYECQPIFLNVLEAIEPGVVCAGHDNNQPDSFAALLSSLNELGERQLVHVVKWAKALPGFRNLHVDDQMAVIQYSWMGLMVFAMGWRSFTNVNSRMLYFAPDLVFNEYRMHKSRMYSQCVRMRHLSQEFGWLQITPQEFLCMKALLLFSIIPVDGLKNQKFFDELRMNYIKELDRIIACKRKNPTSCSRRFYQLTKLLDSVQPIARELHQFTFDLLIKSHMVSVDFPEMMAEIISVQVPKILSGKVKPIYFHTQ
# AR / CBP ternary complex, sequence (Q92793 2-2442): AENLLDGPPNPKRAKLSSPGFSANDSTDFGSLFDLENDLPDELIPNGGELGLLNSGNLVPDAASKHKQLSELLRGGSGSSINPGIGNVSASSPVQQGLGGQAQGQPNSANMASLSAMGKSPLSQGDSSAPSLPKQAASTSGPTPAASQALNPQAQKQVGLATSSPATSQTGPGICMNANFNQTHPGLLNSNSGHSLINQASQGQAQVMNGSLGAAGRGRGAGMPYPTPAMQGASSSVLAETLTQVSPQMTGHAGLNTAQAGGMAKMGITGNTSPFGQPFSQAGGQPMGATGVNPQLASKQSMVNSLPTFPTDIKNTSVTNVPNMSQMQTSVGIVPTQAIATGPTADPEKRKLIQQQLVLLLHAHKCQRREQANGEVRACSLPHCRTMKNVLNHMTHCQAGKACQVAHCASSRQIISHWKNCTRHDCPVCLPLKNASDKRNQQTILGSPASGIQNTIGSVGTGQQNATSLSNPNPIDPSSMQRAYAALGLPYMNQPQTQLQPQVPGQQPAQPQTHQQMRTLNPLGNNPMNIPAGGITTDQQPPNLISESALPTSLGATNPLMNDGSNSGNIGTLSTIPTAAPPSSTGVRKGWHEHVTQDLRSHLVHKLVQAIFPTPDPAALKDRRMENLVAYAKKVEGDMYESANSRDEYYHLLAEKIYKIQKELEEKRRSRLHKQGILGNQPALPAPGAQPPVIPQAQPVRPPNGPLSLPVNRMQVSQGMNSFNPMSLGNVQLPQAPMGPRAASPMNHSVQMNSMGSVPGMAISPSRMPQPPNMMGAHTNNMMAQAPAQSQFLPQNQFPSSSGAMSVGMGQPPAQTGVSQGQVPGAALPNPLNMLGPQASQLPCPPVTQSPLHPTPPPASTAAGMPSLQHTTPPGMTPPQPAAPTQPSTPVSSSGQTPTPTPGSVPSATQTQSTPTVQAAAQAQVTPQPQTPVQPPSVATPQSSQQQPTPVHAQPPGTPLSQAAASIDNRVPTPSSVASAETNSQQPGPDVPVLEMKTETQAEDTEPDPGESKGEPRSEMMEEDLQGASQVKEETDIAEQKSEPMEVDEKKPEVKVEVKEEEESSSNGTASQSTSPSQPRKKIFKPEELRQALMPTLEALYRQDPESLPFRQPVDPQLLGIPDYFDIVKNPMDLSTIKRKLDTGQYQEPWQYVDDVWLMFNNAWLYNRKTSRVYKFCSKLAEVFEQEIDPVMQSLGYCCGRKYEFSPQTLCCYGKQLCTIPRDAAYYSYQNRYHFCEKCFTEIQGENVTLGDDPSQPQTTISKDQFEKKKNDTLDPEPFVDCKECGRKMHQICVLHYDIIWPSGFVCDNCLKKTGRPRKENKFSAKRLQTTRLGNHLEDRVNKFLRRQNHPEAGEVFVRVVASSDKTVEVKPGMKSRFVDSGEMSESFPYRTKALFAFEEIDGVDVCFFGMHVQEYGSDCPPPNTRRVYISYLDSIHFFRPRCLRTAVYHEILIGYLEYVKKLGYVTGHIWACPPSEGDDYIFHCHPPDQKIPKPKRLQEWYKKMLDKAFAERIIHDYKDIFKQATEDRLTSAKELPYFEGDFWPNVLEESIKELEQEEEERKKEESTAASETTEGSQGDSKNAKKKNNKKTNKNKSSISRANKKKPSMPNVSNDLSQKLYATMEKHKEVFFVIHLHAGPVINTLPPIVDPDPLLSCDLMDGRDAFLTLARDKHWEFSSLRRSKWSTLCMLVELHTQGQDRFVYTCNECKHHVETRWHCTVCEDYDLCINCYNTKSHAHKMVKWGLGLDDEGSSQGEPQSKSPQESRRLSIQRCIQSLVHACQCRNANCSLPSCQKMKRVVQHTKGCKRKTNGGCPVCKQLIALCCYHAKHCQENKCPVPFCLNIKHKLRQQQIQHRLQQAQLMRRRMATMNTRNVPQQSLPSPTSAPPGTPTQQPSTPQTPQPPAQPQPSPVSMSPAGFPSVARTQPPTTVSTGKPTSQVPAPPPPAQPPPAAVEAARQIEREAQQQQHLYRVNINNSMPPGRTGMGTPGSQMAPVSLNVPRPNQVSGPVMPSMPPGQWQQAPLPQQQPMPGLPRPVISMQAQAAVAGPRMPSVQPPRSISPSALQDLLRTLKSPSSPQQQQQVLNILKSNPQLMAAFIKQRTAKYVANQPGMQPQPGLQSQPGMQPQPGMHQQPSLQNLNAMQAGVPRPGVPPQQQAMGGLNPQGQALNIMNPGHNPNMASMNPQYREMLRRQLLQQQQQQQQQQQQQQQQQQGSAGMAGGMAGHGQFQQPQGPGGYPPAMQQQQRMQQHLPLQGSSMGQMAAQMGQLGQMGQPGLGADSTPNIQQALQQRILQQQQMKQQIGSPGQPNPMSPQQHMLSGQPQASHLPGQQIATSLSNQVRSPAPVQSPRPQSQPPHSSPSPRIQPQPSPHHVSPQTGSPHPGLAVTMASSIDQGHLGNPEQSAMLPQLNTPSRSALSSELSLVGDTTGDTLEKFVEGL
EC50 (AR / CBP ternary complex; [1]),IC50 (VCaP cells),SMILES,EC50 (AR / CBP ternary complex; [2])
< 1 nM,0.1 to 1 nM,"CC(=O)N1CCc2c(c(-c3cccc4cc(-c5ccc(CCC6CC7(C6)CN(c6ccc(C(=O)N[C@H]8CC[C@H](Oc9ccc(C#N)c(Cl)c9)CC8)nn6)C7)nc5)ncc34)nn2C)C1 [Compound 51, 6-[6-[2-[5-[8-(5-acetyl-1-methyl-6,7-dihydro-4H-pyrazolo[4,3-c]pyridin-3-yl)-3-isoquinolyl]-2-pyridyl]ethyl]-2-azaspiro[3.3]heptan-2-yl]-N-[4-(3-chloro-4-cyano-phenoxy)cyclohexyl]pyridazine-3-carboxamide]",
< 1 nM,≤ 0.1 nM,"CC(=O)N1CCc2c(c(-c3cccc4cc(-c5cnn(CCC6CCN(c7ccc(C(=O)N[C@H]8CC[C@H](Oc9ccc(C#N)c(Cl)c9)CC8)nn7)CC6)c5)ncc34)nn2C)C1 [Compound 8, 6-[4-[2-[4-[8-(5-acetyl-1-methyl-6,7-dihydro-4H-pyrazolo[4,3-c]pyridin-3-yl)-3-isoquinolyl]pyrazol-1-yl]ethyl]-1-piperidyl]-N-[4-(3-chloro-4-cyano-phenoxy)cyclohexyl]pyridazine-3-carboxamide]",
< 1 nM,≤ 0.1 nM,"CC(=O)N1CCc2c(c(N3CCCc4ccc(C(F)F)cc43)nn2C2CCN(C(=O)C3CCN(c4ccc(C(=O)N[C@H]5CC[C@H](Oc6ccc(C#N)c(Cl)c6)CC5)nn4)CC3)CC2)C1 [Compound 62, 6-[4-[4-[5-acetyl-3-[7-(difluoromethyl)-3,4-dihydro-2H-quinolin-1-yl]-6,7-dihydro-4H-pyrazolo[4,3-c]pyridin-1-yl]piperidine-1-carbonyl]-1-piperidyl]-N-[4-(3-chloro-4-cyano-phenoxy)cyclohexyl]pyridazine-3-carboxamide]",
< 1 nM,≤ 0.1 nM,"CC(=O)N1CCc2c(c(N3CCCc4cc(-c5cnn(C)c5)c(C(F)F)cc43)nn2C2CCN(C(=O)CC3CCN(c4ccc(C(=O)N[C@H]5CC[C@H](Oc6ccc(C#N)c(Cl)c6)CC5)nn4)CC3)CC2)C1 [Compound 14, 6-[4-[2-[4-[5-acetyl-3-[7-(difluoromethyl)-6-(1-methylpyrazol-4-yl)-3,4-dihydro-2H-quinolin-1-yl]-6,7-dihydro-4H-pyrazolo[4,3-c]pyridin-1-yl]-1-piperidyl]-2-oxo-ethyl]-1-piperidyl]-N-[4-(3-chloro-4-cyano-phenoxy)cyclohexyl]pyridazine-3-carboxamide]",
< 1 nM,≤ 0.1 nM,"CC(=O)N1CCc2c(c(N3CCCc4cc(-c5cnn(C)c5)c(C(F)F)cc43)nn2[C@H]2CC[C@H](CN3CCN(c4ccc(C(=O)N[C@H]5CC[C@H](Oc6ccc(C#N)c(Cl)c6)CC5)nn4)CC3)CC2)C1 [Compound 209, 6-[4-[[4-[5-acetyl-3-[7-(difluoromethyl)-6-(1-methylpyrazol-4-yl)-3,4-dihydro-2H-quinolin-1-yl]-6,7-dihydro-4H-pyrazolo[4,3-c]pyridin-1-yl]cyclohexyl]methyl]piperazin-1-yl]-N-[4-(3-chloro-4-cyano-phenoxy)cyclohexyl]pyridazine-3-carboxamide]",
< 1 nM,0.1 to 1 nM,"CC(=O)N1CCc2c(c(N3CCCc4cc(C#N)ccc43)nn2C2CCC3(CC2)CCN(c2ccc(C(=O)N[C@H]4CC[C@H](Oc5ccc(C#N)c(Cl)c5)CC4)nn2)CC3)C1 [Compound 113, 6-[9-[5-acetyl-3-(6-cyano-3,4-dihydro-2H-quinolin-1-yl)-6,7-dihydro-4H-pyrazolo[4,3-c]pyridin-1-yl]-3-azaspiro[5.5]undecan-3-yl]-N-[4-(3-chloro-4-cyano-phenoxy)cyclohexyl]pyridazine-3-carboxamide]",
< 1 nM,≤ 0.1 nM,"CC(=O)N1CCc2c(c(-c3cccc4cc(-c5cnn(CCOC6CCN(c7ccc(C(=O)N[C@H]8CC[C@H](Oc9ccc(C#N)c(Cl)c9)CC8)nn7)CC6)c5)ncc34)nn2C)C1 [Compound 65, 6-[4-[2-[4-[8-(5-acetyl-1-methyl-6,7-dihydro-4H-pyrazolo[4,3-c]pyridin-3-yl)-3-isoquinolyl]pyrazol-1-yl]ethoxy]-1-piperidyl]-N-[4-(3-chloro-4-cyano-phenoxy)cyclohexyl]pyridazine-3-carboxamide]",
< 1 nM,0.1 to 1 nM,"CC(=O)N1CCc2c(c(-c3cccc4cc(-c5ccc(CC6CCN(c7ccc(C(=O)N[C@H]8CC[C@H](Oc9ccc(C#N)c(Cl)c9)CC8)nn7)CC6)nc5)ncc34)nn2C2CCOCC2)C1 [Compound 23, 6-[4-[[5-[8-(5-acetyl-1-tetrahydropyran-4-yl-6,7-dihydro-4H-pyrazolo[4,3-c]pyridin-3-yl)-3-isoquinolyl]-2-pyridyl]methyl]-1-piperidyl]-N-[4-(3-chloro-4-cyano-phenoxy)cyclohexyl]pyridazine-3-carboxamide]",
< 1 nM,≤ 0.1 nM,"CC(=O)N1CCc2c(c(N3CCCc4cc(-c5cnn(C)c5)c(C(F)F)cc43)nn2C2CCN(C3CN(c4ccc(C(=O)N[C@H]5CC[C@H](Oc6ccc(C#N)c(Cl)c6)CC5)nn4)C3)CC2)C1 [Compound 206, 6-[3-[4-[5-acetyl-3-[7-(difluoromethyl)-6-(1-methylpyrazol-4-yl)-3,4-dihydro-2H-quinolin-1-yl]-6,7-dihydro-4H-pyrazolo[4,3-c]pyridin-1-yl]-1-piperidyl]azetidin-1-yl]-N-[4-(3-chloro-4-cyano-phenoxy)cyclohexyl]pyridazine-3-carboxamide]",
1 to 10 nM,1 to 100 nM,"Cc1cc2c(N3CCN(C)c4cc(C5CC5)ncc43)cc(N3CCN(CC4CCN(c5ccc(C(=O)N[C@H]6CC[C@H](Oc7ccc(C#N)c(Cl)c7)CC6)nn5)CC4)CC3)cc2n(C)c1=O [Compound 138, N-[4-(3-chloro-4-cyano-phenoxy)cyclohexyl]-6-[4-[[4-[5-(7-cyclopropyl-1-methyl-2,3-dihydropyrido[3,4-b]pyrazin-4-yl)-1,3-dimethyl-2-oxo-7-quinolyl]piperazin-1-yl]methyl]-1-piperidyl]pyridazine-3-carboxamide]",
< 1 nM,≤ 0.1 nM,"CC(=O)N1CCc2c(c(N3CCCc4cc(-c5cnn(C)c5)c(C(F)F)cc43)nn2C2CCC3(CC2)CCN(C2CN(c4ccc(C(=O)NC5CCC(Oc6ccc(C#N)c(Cl)c6)CC5)nn4)C2)CC3)C1 (centres unmarked) [Compound 197, 6-[3-[9-[5-acetyl-3-[7-(difluoromethyl)-6-(1-methylpyrazol-4-yl)-3,4-dihydro-2H-quinolin-1-yl]-6,7-dihydro-4H-pyrazolo[4,3-c]pyridin-1-yl]-3-azaspiro[5.5]undecan-3-yl]azetidin-1-yl]-N-[4-(3-chloro-4-cyanophenoxy)cyclohexyl]pyridazine-3-carboxamide]",

SMILES,EC50 (AR / CBP ternary complex; [1]),IC50 (VCaP cells),EC50 (AR / CBP ternary complex; [2])
CC(=O)N1CCc2c(c(-c3cccc4cc(-c5ccc(CCC6CC7(C6)CN(c6ccc(C(=O)N[C@H]8CC[C@H](Oc9ccc(C#N)c(Cl)c9)CC8)nn6)C7)nc5)ncc34)nn2C2CCOCC2)C1 [Compound 48],,≤ 0.1 nM,< 1 nM
"Cn1c(=O)n(C)c2cc(N3CCCc4cc(-c5ccc(CCC6CCN(c7ccc(C(=O)N[C@H]8CC[C@H](Oc9ccc(C#N)c(Cl)c9)CC8)nn7)CC6)nc5)c(C(F)F)cc43)ccc21 [Compound 53, N-[4-(3-chloro-4-cyano-phenoxy)cyclohexyl]-6-[4-[2-[5-[7-(difluoromethyl)-1-(1,3-dimethyl-2-oxo-benzimidazol-5-yl)-3,4-dihydro-2H-quinolin-6-yl]-2-pyridyl]ethyl]-1-piperidyl] pyridazine-3-carboxamide]",,> 100 nM,< 1 nM
